Measurements published in patent US20160081978A1, “PHARMACEUTICAL COMPOSITION CONTAINING LIRIODENDRON TULIPIFERA L. EXTRACT FOR TREATING CHRONIC MYELOGENOUS LEUKEMIA” (CHO DANG PHARM. CO., LTD., priority 2013, published 2016).

Assays:
Assay in all cases: XTT cell viability assay, inhibition of multiplication of leukemia cell line
Assay type in all cases: cell-based
[1] = test system: Ba/F3 (BCR/ABL-T315I) cell line
From the text: For measuring the cell viability indicating the inhibition of multiplication, in vitro XTT assay has been employed. […] Finally, the cell viability has been measured using ELISA through the absorbance at 620 nm, 540 nm (FIG. 1).

Ba/F3(BCR/ABL) cell line = details: 1 mg/ml of CD-200, 1 μM of CD-EPT, 48 hours
Procedure: (§1) For measuring the cell viability indicating the inhibition of multiplication, in vitro XTT assay has been employed. […] To find out the selective inhibition of T315I enzyme variant from BCR-ABL fusion gene, the cell lines have been incubated for 48 hours at 37° C. After incubation, the sample has been treated with XTT formazan (WEL GENE) for 4 hours at 37° C. Finally, the cell viability has been measured using ELISA through the absorbance at 620 nm, 540 nm (FIG. 1).

Ba/F3 mother cell line = details: 1 mg/ml of CD-200, 1 μM of CD-EPT, 48 hours
Procedure: as §1

## C=C1C(=O)O[C@@H]2/C=C(\C)CC/C=C(\C)C[C@@H](OC(C)=O)[C@@H]12 [CD-EPT, epi-tulipinolide]
[1]; 1 μM of Imatinib, 1 mg/ml of CD-200, 1 μM of CD-EPT, Ba/F3 (BCR/ABL-T315I) cell line
  inhibition of cell growth compared to Imatinib: effective inhibition of cell growth compared to Imatinib
[1]; 1 mg/ml of CD-200, 1 μM of CD-EPT, 48 hours, XTT, Ba/F3 (BCR/ABL-T315I) cell line
  inhibition of cell growth (cell viability): effectively inhibit the cell growth
[1]; Ba/F3 (BCR/ABL-T315I) mutant, XTT, 48 hours
  IC50: 0.8 µM
[1]; Ba/F3 (BCR/ABL-T315I) mutant, from IC50 values
  effective inhibition capability compared to Imatinib: 5 times
Ba/F3(BCR/ABL) cell line
  inhibition of cell growth (cell viability): cannot significantly inhibit the cell growth
Ba/F3 mother cell line
  inhibition of cell growth (cell viability): effectively inhibit the cell growth
